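Where inhibition never reached the appropriate level, the endpoint shown equals the highest concentration tested. Otherwise, values were interpolated linearly from a five-concentration, 48-hour dose response in 96-well plates. Definition used: TGI = concentration required for complete inhibition of growth.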
Key:
Assay in all cases: NCI tumour cell line growth inhibition, 48 h
OVCAR-5 ovarian = test system: OVCAR-5 ovarian
U251 CNS = test system: U251 CNS
SF-268 CNS = test system: SF-268 CNS
KM20L2 colon = test system: KM20L2 colon
TK-10 renal = test system: TK-10 renal
SNB-75 CNS = test system: SNB-75 CNS
CCRF-CEM leukemia = test system: CCRF-CEM leukemia
HCT-116 colon = test system: HCT-116 colon
RXF 393 renal = test system: RXF 393 renal
MALME-3M melanoma = test system: MALME-3M melanoma
LOX IMVI melanoma = test system: LOX IMVI melanoma
SK-OV-3 ovarian = test system: SK-OV-3 ovarian
OVCAR-8 ovarian = test system: OVCAR-8 ovarian
SW-620 colon = test system: SW-620 colon
ACHN renal = test system: ACHN renal
HCT-15 colon = test system: HCT-15 colon
786-0 renal = test system: 786-0 renal
DLD-1 colon = test system: DLD-1 colon
NCI-H522 lung = test system: NCI-H522 lung
HT29 colon = test system: HT29 colon
NCI-H460 lung = test system: NCI-H460 lung
DMS 114 small cell lung = test system: DMS 114 small cell lung
SNB-78 CNS = test system: SNB-78 CNS
SK-MEL-2 melanoma = test system: SK-MEL-2 melanoma
SR leukemia = test system: SR leukemia
UACC-257 melanoma = test system: UACC-257 melanoma
CAKI-1 renal = test system: CAKI-1 renal
A549 NSCLC = test system: A549 NSCLC
LXFL 529 NSCLC = test system: LXFL 529 NSCLC
HOP-92 NSCLC = test system: HOP-92 NSCLC
SNB-19 CNS = test system: SNB-19 CNS
SK-MEL-28 melanoma = test system: SK-MEL-28 melanoma
SF-295 CNS = test system: SF-295 CNS
OVCAR-3 ovarian = test system: OVCAR-3 ovarian
HOP-18 NSCLC = test system: HOP-18 NSCLC
SK-MEL-5 melanoma = test system: SK-MEL-5 melanoma
EKVX NSCLC = test system: EKVX NSCLC
SF-539 CNS = test system: SF-539 CNS
KM12 colon = test system: KM12 colon
SN12C renal = test system: SN12C renal
MOLT-4 leukemia = test system: MOLT-4 leukemia
RXF-631 renal = test system: RXF-631 renal
HOP-62 NSCLC = test system: HOP-62 NSCLC
OVCAR-4 ovarian = test system: OVCAR-4 ovarian
K-562 leukemia = test system: K-562 leukemia
UACC-62 melanoma = test system: UACC-62 melanoma
HL-60(TB) leukemia = test system: HL-60(TB) leukemia
M19-MEL melanoma = test system: M19-MEL melanoma
UO-31 renal = test system: UO-31 renal
M14 melanoma = test system: M14 melanoma
DMS 273 small cell lung = test system: DMS 273 small cell lung
COLO 205 colon = test system: COLO 205 colon
NCI-H226 lung = test system: NCI-H226 lung
NCI-H23 lung = test system: NCI-H23 lung
HCC-2998 colon = test system: HCC-2998 colon
RPMI-8226 leukemia = test system: RPMI-8226 leukemia
A498 renal = test system: A498 renal
IGROV1 ovarian = test system: IGROV1 ovarian
XF 498 CNS = test system: XF 498 CNS
DU-145 prostate = test system: DU-145 prostate
BT-549 breast = test system: BT-549 breast
MDA-MB-231 breast = test system: MDA-MB-231 breast
MDA-N = test system: MDA-N
MDA-MB-435 = test system: MDA-MB-435
HS 578T breast = test system: HS 578T breast
NCI/ADR-RES ovarian = test system: NCI/ADR-RES ovarian
PC-3 prostate = test system: PC-3 prostate
T-47D breast = test system: T-47D breast
MCF7 breast = test system: MCF7 breast

SMILES: CCOC(=O)/C(=C\c1cccs1)P(=O)(OCC)OCC
- TGI (OVCAR-5 ovarian): 45.8 µM
- TGI (U251 CNS): 41.9 µM
- TGI (SF-268 CNS): 60.4 µM
- TGI (KM20L2 colon): 49.7 µM
- TGI (TK-10 renal): > 100 µM
- TGI (SNB-75 CNS): > 100 µM
- TGI (CCRF-CEM leukemia): > 100 µM
- TGI (HCT-116 colon): 33.7 µM
- TGI (RXF 393 renal): 29.4 µM
- TGI (MALME-3M melanoma): 52.6 µM
- TGI (LOX IMVI melanoma): 37.5 µM
- TGI (SK-OV-3 ovarian): > 100 µM
- TGI (OVCAR-8 ovarian): 77.2 µM
- TGI (SW-620 colon): 36.6 µM
- TGI (ACHN renal): 32.3 µM
- TGI (HCT-15 colon): 32.4 µM
- TGI (786-0 renal): 47.2 µM
- TGI (DLD-1 colon): 60.6 µM
- TGI (NCI-H522 lung): 28.4 µM
- TGI (HT29 colon): 36.3 µM
- TGI (NCI-H460 lung): 46.9 µM
- TGI (DMS 114 small cell lung): 51.7 µM
- TGI (SNB-78 CNS): > 100 µM
- TGI (SK-MEL-2 melanoma): 38.1 µM
- TGI (SR leukemia): > 100 µM
- TGI (UACC-257 melanoma): 61 µM
- TGI (CAKI-1 renal): 35.4 µM
- TGI (A549 NSCLC): 50.8 µM
- TGI (LXFL 529 NSCLC): 41.4 µM
- TGI (HOP-92 NSCLC): 84.5 µM
- TGI (SNB-19 CNS): > 100 µM
- TGI (SK-MEL-28 melanoma): 32.7 µM
- TGI (SF-295 CNS): > 100 µM
- TGI (OVCAR-3 ovarian): 41.8 µM
- TGI (HOP-18 NSCLC): > 100 µM
- TGI (SK-MEL-5 melanoma): 31.6 µM
- TGI (EKVX NSCLC): 60.3 µM
- TGI (SF-539 CNS): 45.4 µM
- TGI (KM12 colon): 31.4 µM
- TGI (SN12C renal): 45.9 µM
- TGI (MOLT-4 leukemia): > 100 µM
- TGI (RXF-631 renal): > 100 µM
- TGI (HOP-62 NSCLC): > 100 µM
- TGI (OVCAR-4 ovarian): 37.5 µM
- TGI (K-562 leukemia): > 100 µM
- TGI (UACC-62 melanoma): 32.8 µM
- TGI (HL-60(TB) leukemia): 73.3 µM
- TGI (M19-MEL melanoma): 45 µM
- TGI (UO-31 renal): 36.1 µM
- TGI (M14 melanoma): 33.2 µM
- TGI (DMS 273 small cell lung): > 100 µM
- TGI (COLO 205 colon): 30.4 µM
- TGI (NCI-H226 lung): 43.3 µM
- TGI (NCI-H23 lung): 35.2 µM
- TGI (HCC-2998 colon): 33.1 µM
- TGI (RPMI-8226 leukemia): 77.1 µM

SMILES: CN1CC[C@]2(C)c3cc(O)ccc3CC3CCCC1C32C (stereo partly drawn)
- TGI (OVCAR-5 ovarian): > 100 µM
- TGI (U251 CNS): > 100 µM
- TGI (SF-268 CNS): > 100 µM
- TGI (KM20L2 colon): > 100 µM
- TGI (TK-10 renal): > 100 µM
- TGI (SNB-75 CNS): > 100 µM
- TGI (CCRF-CEM leukemia): > 100 µM
- TGI (HCT-116 colon): > 100 µM
- TGI (RXF 393 renal): > 100 µM
- TGI (MALME-3M melanoma): > 100 µM
- TGI (LOX IMVI melanoma): > 100 µM
- TGI (SK-OV-3 ovarian): > 100 µM
- TGI (OVCAR-8 ovarian): > 100 µM
- TGI (SW-620 colon): > 100 µM
- TGI (ACHN renal): > 100 µM
- TGI (HCT-15 colon): > 100 µM
- TGI (A498 renal): > 100 µM
- TGI (786-0 renal): > 100 µM
- TGI (DLD-1 colon): > 100 µM
- TGI (NCI-H522 lung): > 100 µM
- TGI (IGROV1 ovarian): > 100 µM
- TGI (HT29 colon): > 100 µM
- TGI (NCI-H460 lung): > 100 µM
- TGI (DMS 114 small cell lung): > 100 µM
- TGI (SNB-78 CNS): > 100 µM
- TGI (SR leukemia): > 100 µM
- TGI (UACC-257 melanoma): > 100 µM
- TGI (CAKI-1 renal): > 100 µM
- TGI (A549 NSCLC): > 100 µM
- TGI (LXFL 529 NSCLC): > 100 µM
- TGI (HOP-92 NSCLC): > 100 µM
- TGI (SNB-19 CNS): > 100 µM
- TGI (SK-MEL-28 melanoma): > 100 µM
- TGI (SF-295 CNS): > 100 µM
- TGI (OVCAR-3 ovarian): > 100 µM
- TGI (HOP-18 NSCLC): > 100 µM
- TGI (SK-MEL-5 melanoma): > 100 µM
- TGI (EKVX NSCLC): > 100 µM
- TGI (SF-539 CNS): > 100 µM
- TGI (KM12 colon): > 100 µM
- TGI (SN12C renal): > 100 µM
- TGI (MOLT-4 leukemia): > 100 µM
- TGI (RXF-631 renal): > 100 µM
- TGI (HOP-62 NSCLC): > 100 µM
- TGI (K-562 leukemia): > 100 µM
- TGI (UACC-62 melanoma): > 100 µM
- TGI (HL-60(TB) leukemia): > 100 µM
- TGI (M19-MEL melanoma): > 100 µM
- TGI (UO-31 renal): > 100 µM
- TGI (M14 melanoma): > 100 µM
- TGI (COLO 205 colon): > 100 µM
- TGI (NCI-H226 lung): > 100 µM
- TGI (NCI-H23 lung): > 100 µM
- TGI (HCC-2998 colon): > 100 µM
- TGI (RPMI-8226 leukemia): > 100 µM
- TGI (XF 498 CNS): > 100 µM

SMILES: CCN(CC)CCn1c2ccccc2c(=O)c2c(O)ccc(O)c21
- TGI (OVCAR-5 ovarian): > 78.5 µM
- TGI (DU-145 prostate): > 100 µM
- TGI (U251 CNS): 74.1 µM
- TGI (BT-549 breast): 44.7 µM
- TGI (SF-268 CNS): 52.7 µM
- TGI (KM20L2 colon): > 100 µM
- TGI (TK-10 renal): 49.2 µM
- TGI (MDA-MB-231 breast): 29.9 µM
- TGI (SNB-75 CNS): 49.5 µM
- TGI (CCRF-CEM leukemia): > 90.2 µM
- TGI (HCT-116 colon): 58.6 µM
- TGI (RXF 393 renal): 35.9 µM
- TGI (MALME-3M melanoma): 49.3 µM
- TGI (LOX IMVI melanoma): 36.3 µM
- TGI (SK-OV-3 ovarian): > 81 µM
- TGI (OVCAR-8 ovarian): 48.2 µM
- TGI (SW-620 colon): 31.5 µM
- TGI (ACHN renal): 57.8 µM
- TGI (HCT-15 colon): > 58.5 µM
- TGI (A498 renal): > 100 µM
- TGI (786-0 renal): 53.8 µM
- TGI (NCI-H522 lung): 35.9 µM
- TGI (IGROV1 ovarian): 66.3 µM
- TGI (HT29 colon): 59.8 µM
- TGI (NCI-H460 lung): > 71.9 µM
- TGI (DMS 114 small cell lung): 41 µM
- TGI (SNB-78 CNS): > 60.2 µM
- TGI (MDA-N): 34.4 µM
- TGI (SK-MEL-2 melanoma): 50.4 µM
- TGI (MDA-MB-435): 33.4 µM
- TGI (SR leukemia): 26.2 µM
- TGI (UACC-257 melanoma): 60.6 µM
- TGI (CAKI-1 renal): 61.5 µM
- TGI (A549 NSCLC): > 100 µM
- TGI (HS 578T breast): 53.5 µM
- TGI (LXFL 529 NSCLC): 41.7 µM
- TGI (HOP-92 NSCLC): 39.9 µM
- TGI (SNB-19 CNS): > 74.8 µM
- TGI (SK-MEL-28 melanoma): 48.6 µM
- TGI (SF-295 CNS): 56.1 µM
- TGI (OVCAR-3 ovarian): 47.6 µM
- TGI (SK-MEL-5 melanoma): 45.5 µM
- TGI (EKVX NSCLC): > 46.4 µM
- TGI (NCI/ADR-RES ovarian): 44 µM
- TGI (SF-539 CNS): 50.3 µM
- TGI (KM12 colon): > 74.8 µM
- TGI (SN12C renal): 45.6 µM
- TGI (MOLT-4 leukemia): 69.3 µM
- TGI (RXF-631 renal): > 66.8 µM
- TGI (HOP-62 NSCLC): 86.5 µM
- TGI (OVCAR-4 ovarian): 34.5 µM
- TGI (K-562 leukemia): 68.5 µM
- TGI (UACC-62 melanoma): 52.8 µM
- TGI (PC-3 prostate): > 56.1 µM
- TGI (T-47D breast): 34.3 µM
- TGI (HL-60(TB) leukemia): 46.8 µM
- TGI (UO-31 renal): 63.8 µM
- TGI (M14 melanoma): 63.6 µM
- TGI (DMS 273 small cell lung): > 100 µM
- TGI (COLO 205 colon): 45.1 µM
- TGI (NCI-H226 lung): > 56.2 µM
- TGI (MCF7 breast): 40.1 µM
- TGI (NCI-H23 lung): 62.2 µM
- TGI (HCC-2998 colon): > 57.7 µM
- TGI (RPMI-8226 leukemia): 85.4 µM
- TGI (XF 498 CNS): 44.2 µM

Reference: PubChem BioAssay (NCI)
